Measured values reported in PMC9329436, “Optimization of the 4-anilinoquin(az)oline scaffold as epidermal growth factor receptor (EGFR) inhibitors for chordoma utilizing a toxicology profiling assay platform” (Scientific Reports, 2022).
Where “and” joins values, the source holds several entries; their conditions need not be identical. Equal entries are not always repeated.

test system: WS1 human fibroblast cell line; assay: Cell viability assay, WS1 toxicity control; type: cell-based; conditions: Homo sapiens, Fibroblast, n = 4, nonspecific toxicity control
Procedure: (§1) Cells were seeded in 384 well plates and were treated with test compound in quadruplicate 24 h after plating. Cell viability was assessed at 72 h using alamarBlue (ThermoFisher, USA). […] IC50 values were determined by four-parameter nonlinear regression analyses using GraphPad Prism™ version 8 software (San Diego, CA).

Structure (SMILES)	IC50
C#Cc1cccc(Nc2ncnc3ccc(I)cc23)c1 [Compound 9, N-(3-ethynylphenyl)-6-iodoquinazolin-4-amine]	98 µM
C#Cc1cccc(Nc2ncnc3cc(OCCOC)c(OCCOC)cc23)c1 [Erlotinib, reference compound]	19 µM

same assay, conditions: n = 4, nonspecific toxicity control

Structure (SMILES)	IC50
C#Cc1cccc(Nc2ncnc3cc(OC)ccc23)c1 [Compound 11]	88 µM
C#Cc1cccc(Nc2ncnc3cc(I)ccc23)c1 [Compound 15]	> 100 µM
C#Cc1cccc(Nc2ncnc3cc(C(F)(F)F)ccc23)c1 [Compound 16]	18 µM
C#Cc1cccc(Nc2ncnc3cc(C#N)ccc23)c1 [Compound 17]	> 100 µM

test system: U-CH1 chordoma cell line; assay: Cell viability assay (alamarBlue, 72 h), U-CH1; type: cell-based, human; conditions: Homo sapiens, UCH1, 72 h, n = 4, 72 h
Procedure: (§2) Chordoma cell lines were cultured as described previously[10],[12],[33],[34]. Briefly, U-CH1 and U-CH2 cell lines were cultured in 4:1 IMDM:RPMI medium supplemented with 10% fetal bovine serum (FBS) and 1% penicillin/streptomycin in gel-coated flasks. […] CH22, UM-Chor1, U-CH12, and U-CH7 cell lines were cultured in RPMI medium supplemented with 10% FBS and 1% penicillin/streptomycin. The cell lines all undergo regular mycoplasma screening.
as §1

Structure (SMILES)	IC50
C#Cc1cccc(Nc2ncnc3ccc(I)cc23)c1 [Compound 9, N-(3-ethynylphenyl)-6-iodoquinazolin-4-amine]	8.7 µM

same assay, conditions: Homo sapiens, UCH1, n = 4, 72 h

Structure (SMILES)	IC50
C#Cc1cccc(Nc2c(C#N)cnc3ccc(I)cc23)c1 [Compound 28, 4-((3-ethynylphenyl)amino)-6-iodoquinoline-3-carbonitrile]	8.7 µM

same assay, conditions: n = 4, 72 h

Structure (SMILES)	IC50
C#Cc1cccc(Nc2ncnc3cc(OC)ccc23)c1 [Compound 11]	1.9 µM
C#Cc1cccc(Nc2ncnc3cc(I)ccc23)c1 [Compound 15]	17 µM
C#Cc1cccc(Nc2ncnc3cc(C(F)(F)F)ccc23)c1 [Compound 16]	12 µM
C#Cc1cccc(Nc2ncnc3cc(C#N)ccc23)c1 [Compound 17]	65 µM

test system: U-CH12 patient-derived chordoma cell line; assay: Cell viability assay (alamarBlue, 72 h), U-CH12; type: cell-based, human; conditions: Homo sapiens, n = 4, 72 h
Procedure: as §2, §1

Structure (SMILES)	IC50
C#Cc1cccc(Nc2ncnc3ccc(I)cc23)c1 [Compound 9, N-(3-ethynylphenyl)-6-iodoquinazolin-4-amine]	> 100 µM
C#Cc1cccc(Nc2c(C#N)cnc3ccc(I)cc23)c1 [Compound 28, 4-((3-ethynylphenyl)amino)-6-iodoquinoline-3-carbonitrile]	7.7 µM
C#Cc1cccc(Nc2ncnc3cc(OCCOC)c(OCCOC)cc23)c1 [Erlotinib, reference compound]	68 µM

same assay, conditions: n = 4, 72 h

Structure (SMILES)	IC50
C#Cc1cccc(Nc2ncnc3cc(OC)ccc23)c1 [Compound 11]	> 100 µM
C#Cc1cccc(Nc2ncnc3cc(I)ccc23)c1 [Compound 15]	> 100 µM
C#Cc1cccc(Nc2ncnc3cc(C(F)(F)F)ccc23)c1 [Compound 16]	7.5 µM
C#Cc1cccc(Nc2ncnc3cc(C#N)ccc23)c1 [Compound 17]	> 100 µM

test system: U-CH7 patient-derived chordoma cell line; assay: Cell viability assay (alamarBlue, 72 h), U-CH7; type: cell-based, human; conditions: Homo sapiens, n = 4, 72 h
Procedure: as §2, §1

Structure (SMILES)	IC50
C#Cc1cccc(Nc2ncnc3ccc(I)cc23)c1 [Compound 9, N-(3-ethynylphenyl)-6-iodoquinazolin-4-amine]	> 100 µM
C#Cc1cccc(Nc2c(C#N)cnc3ccc(I)cc23)c1 [Compound 28, 4-((3-ethynylphenyl)amino)-6-iodoquinoline-3-carbonitrile]	> 100 µM
C#Cc1cccc(Nc2ncnc3cc(OCCOC)c(OCCOC)cc23)c1 [Erlotinib, reference compound]	95 µM

same assay, conditions: n = 4, 72 h

Structure (SMILES)	IC50
C#Cc1cccc(Nc2ncnc3cc(OC)ccc23)c1 [Compound 11]	95 µM
C#Cc1cccc(Nc2ncnc3cc(I)ccc23)c1 [Compound 15]	> 100 µM
C#Cc1cccc(Nc2ncnc3cc(C(F)(F)F)ccc23)c1 [Compound 16]	63 µM
C#Cc1cccc(Nc2ncnc3cc(C#N)ccc23)c1 [Compound 17]	> 100 µM

test system: U-CH2 chordoma cell line; assay: Cell viability assay (alamarBlue, 72 h), U-CH2; type: cell-based, human; conditions: Homo sapiens, UCH2, n = 4, 72 h
Procedure: as §2, §1

Structure (SMILES)	IC50
C#Cc1cccc(Nc2ncnc3ccc(I)cc23)c1 [Compound 9, N-(3-ethynylphenyl)-6-iodoquinazolin-4-amine]	> 100 µM
C#Cc1cccc(Nc2c(C#N)cnc3ccc(I)cc23)c1 [Compound 28, 4-((3-ethynylphenyl)amino)-6-iodoquinoline-3-carbonitrile]	14 µM

same assay, conditions: n = 4, 72 h

Structure (SMILES)	IC50
C#Cc1cccc(Nc2ncnc3cc(OC)ccc23)c1 [Compound 11]	1.2 µM
C#Cc1cccc(Nc2ncnc3cc(I)ccc23)c1 [Compound 15]	> 100 µM
C#Cc1cccc(Nc2ncnc3cc(C(F)(F)F)ccc23)c1 [Compound 16]	15 µM
C#Cc1cccc(Nc2ncnc3cc(C#N)ccc23)c1 [Compound 17]	> 100 µM

target: EGFR (Homo sapiens, UniProt P00533); assay: ProQinase in-cell EGFR assay (EGFR phosphorylation in A431 cells); type: cell-based; design: This cell line endogenously expresses a high level of EGFR; endogenous in cells; host or cells: A431; conditions: ProQinase in-cell EGFR assay, A431 cells, n = 1
From the text: In addition, we ran an EGFR in-cell target engagement assay, measuring in-cell EGFR phosphorylation, using the human epidermoid carcinoma cell line A431. This cell line endogenously expresses a high level of EGFR, and stimulation of these cells with human epidermal growth factor (EGF) results in receptor tyrosine autophosphorylation.

EGFR, sequence (P00533 25-1210): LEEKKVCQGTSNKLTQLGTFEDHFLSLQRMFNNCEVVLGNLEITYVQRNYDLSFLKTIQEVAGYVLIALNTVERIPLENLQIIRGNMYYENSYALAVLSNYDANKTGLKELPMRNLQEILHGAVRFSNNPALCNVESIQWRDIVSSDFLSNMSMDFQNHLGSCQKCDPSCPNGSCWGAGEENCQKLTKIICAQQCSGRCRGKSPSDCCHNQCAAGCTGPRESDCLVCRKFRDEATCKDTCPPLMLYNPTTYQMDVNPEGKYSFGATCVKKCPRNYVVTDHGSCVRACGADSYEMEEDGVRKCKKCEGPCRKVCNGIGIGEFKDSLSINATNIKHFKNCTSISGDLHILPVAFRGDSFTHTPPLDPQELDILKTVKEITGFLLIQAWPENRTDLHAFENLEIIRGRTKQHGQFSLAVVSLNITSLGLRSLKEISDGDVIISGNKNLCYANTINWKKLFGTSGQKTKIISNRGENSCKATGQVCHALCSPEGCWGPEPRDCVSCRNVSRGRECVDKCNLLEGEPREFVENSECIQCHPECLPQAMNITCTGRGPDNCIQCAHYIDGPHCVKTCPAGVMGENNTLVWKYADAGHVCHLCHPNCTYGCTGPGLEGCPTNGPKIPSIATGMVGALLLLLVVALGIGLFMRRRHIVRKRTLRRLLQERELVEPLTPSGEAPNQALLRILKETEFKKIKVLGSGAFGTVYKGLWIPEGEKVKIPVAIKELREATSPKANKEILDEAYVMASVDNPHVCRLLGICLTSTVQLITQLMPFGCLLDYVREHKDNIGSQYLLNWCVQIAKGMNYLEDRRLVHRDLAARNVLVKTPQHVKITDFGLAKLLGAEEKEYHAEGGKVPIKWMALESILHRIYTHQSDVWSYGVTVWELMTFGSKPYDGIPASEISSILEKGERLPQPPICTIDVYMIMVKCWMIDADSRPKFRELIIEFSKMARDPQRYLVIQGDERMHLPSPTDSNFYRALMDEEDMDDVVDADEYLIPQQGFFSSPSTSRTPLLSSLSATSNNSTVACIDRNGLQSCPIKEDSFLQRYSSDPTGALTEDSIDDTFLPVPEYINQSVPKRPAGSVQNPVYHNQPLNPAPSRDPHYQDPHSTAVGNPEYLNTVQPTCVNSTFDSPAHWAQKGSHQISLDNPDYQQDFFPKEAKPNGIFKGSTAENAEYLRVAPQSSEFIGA

Structure (SMILES)	IC50
C#Cc1cccc(Nc2ncnc3ccc(I)cc23)c1 [Compound 9, N-(3-ethynylphenyl)-6-iodoquinazolin-4-amine]	0.83 µM
C#Cc1cccc(Nc2ncnc3cc(OC)ccc23)c1 [Compound 11]	0.53 µM
C#Cc1cccc(Nc2ncnc3cc(I)ccc23)c1 [Compound 15]	2.8 µM
C#Cc1cccc(Nc2ncnc3cc(C(F)(F)F)ccc23)c1 [Compound 16]	> 20 µM
C#Cc1cccc(Nc2ncnc3cc(C#N)ccc23)c1 [Compound 17]	> 20 µM
C#Cc1cccc(Nc2c(C#N)cnc3ccc(I)cc23)c1 [Compound 28, 4-((3-ethynylphenyl)amino)-6-iodoquinoline-3-carbonitrile]	2.5 µM

test system: HL60 cells; assay: AsedaSciences SYSTEMETRIC Cell Health Screen (flow cytometry toxicity profiling); conditions: HL60, 4 h, 5 nM–100 µM, probability 0–1, n = 2
Procedure, shortened: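 Risk scores derive from a logistic-regression ML classifier comparing flow-cytometric stress phenotypes with those of 300 reference compounds of known high or low human risk. Phenotypes: light scatter plus fluorescent physiological dyes, twelve parameters, no gating. Compounds tested 5 nM–100 µM (3× steps, duplicate) on HL60 cells, 4 h, 37 °C.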

Structure (SMILES)	CC: Cell Cycle score	CM: Cell morphology score	GSH: Glutathione score	NMI1: Nuclear membrane integrity 1 score	ROS: Reactive superoxide species score	CMI: Cell membrane integrity score	MMP: Mitochondrial membrane depolarization score	NMI2: Nuclear membrane integrity 2 score
C#Cc1cccc(Nc2ncnc3ccc(I)cc23)c1 [Compound 9, N-(3-ethynylphenyl)-6-iodoquinazolin-4-amine]	0.087 and 0.071	0.0063	0.050 and 0.029	0.13 and 0.069	0.083 and 0.088	–	–	–
C#Cc1cccc(Nc2ncnc3cc(OC)ccc23)c1 [Compound 11]	0.52	0.050	0.0085	0.61	0.63	0.032	0.068	0.15
C#Cc1cccc(Nc2ncnc3cc(I)ccc23)c1 [Compound 15]	0.95	1.00	0.98	0.21	1.00	1.00	0.99	0.94
C#Cc1cccc(Nc2ncnc3cc(C(F)(F)F)ccc23)c1 [Compound 16]	0.92	1.00	0.79	0.6	1.00	0.87	1.00	0.93
C#Cc1cccc(Nc2ncnc3cc(C#N)ccc23)c1 [Compound 17]	0.25	0.43	0.04	0.37	0.41	0.052	0.10	0.10
C#Cc1cccc(Nc2c(C#N)cnc3ccc(I)cc23)c1 [Compound 28, 4-((3-ethynylphenyl)amino)-6-iodoquinoline-3-carbonitrile]	0.91	0.88	0.93	0.74	0.89	1.00	0.99	0.81
C#Cc1cccc(Nc2ncnc3cc(OCCOC)c(OCCOC)cc23)c1 [Erlotinib, reference compound]	–	0.77	0.63 and 0.81	–	–	0.50 and 0.74	–	–

same assay, conditions: HL60, 4 h, 5 nM–100 µM, probability (0–1) of high-risk class, n = 2

Structure (SMILES)	CHI: Cell Health Index
C#Cc1cccc(Nc2ncnc3ccc(I)cc23)c1 [Compound 9, N-(3-ethynylphenyl)-6-iodoquinazolin-4-amine]	0.21
C#Cc1cccc(Nc2ncnc3cc(OC)ccc23)c1 [Compound 11]	0.25
C#Cc1cccc(Nc2ncnc3cc(I)ccc23)c1 [Compound 15]	0.77
C#Cc1cccc(Nc2ncnc3cc(C(F)(F)F)ccc23)c1 [Compound 16]	0.78
C#Cc1cccc(Nc2ncnc3cc(C#N)ccc23)c1 [Compound 17]	0.45
C#Cc1cccc(Nc2c(C#N)cnc3ccc(I)cc23)c1 [Compound 28, 4-((3-ethynylphenyl)amino)-6-iodoquinoline-3-carbonitrile]	0.70

same assay, conditions: SYSTEMETRIC Cell Health Screen; assay n=2

Structure (SMILES)	Cell Health Toxcity Profile CC (DyeCycle Violet)	Cell Health Toxcity Profile CM (Cell morphology)	Cell Health Toxcity Profile CMI (Cell membrane integrity)	Cell Health Toxcity Profile GSH (Glutathione)	Cell Health Toxcity Profile MMP (Mitochondrial membrane depolarization)	Cell Health Toxcity Profile NMI1 (Nuclear membrane integrity 1)	Cell Health Toxcity Profile NMI2 (Nuclear membrane integrity 2)	Cell Health Toxcity Profile ROS (Reactive superoxide species)
C#Cc1cccc(Nc2c(C#N)cnc3ccc(I)cc23)c1 [Compound 28, 4-((3-ethynylphenyl)amino)-6-iodoquinoline-3-carbonitrile]	0.91	0.88	1.00	0.93	0.99	0.74	0.81	0.89

same assay, conditions: SYSTEMETRIC Cell Health Screen; classifier output; assay n=2

Structure (SMILES)	Cell Health Toxcity Profile CHI
C#Cc1cccc(Nc2c(C#N)cnc3ccc(I)cc23)c1 [Compound 28, 4-((3-ethynylphenyl)amino)-6-iodoquinoline-3-carbonitrile]	0.70

test system: UM-Chor1 patient-derived chordoma cell line; assay: Cell viability assay (alamarBlue, 72 h), UM-Chor1; type: cell-based, human; conditions: Homo sapiens, n = 4, 72 h
Procedure: as §2, §1

Structure (SMILES)	IC50
C#Cc1cccc(Nc2ncnc3ccc(I)cc23)c1 [Compound 9, N-(3-ethynylphenyl)-6-iodoquinazolin-4-amine]	> 100 µM
C#Cc1cccc(Nc2c(C#N)cnc3ccc(I)cc23)c1 [Compound 28, 4-((3-ethynylphenyl)amino)-6-iodoquinoline-3-carbonitrile]	6.9 µM
C#Cc1cccc(Nc2ncnc3cc(OCCOC)c(OCCOC)cc23)c1 [Erlotinib, reference compound]	19 µM

same assay, conditions: n = 4, 72 h

Structure (SMILES)	IC50
C#Cc1cccc(Nc2ncnc3cc(OC)ccc23)c1 [Compound 11]	> 100 µM
C#Cc1cccc(Nc2ncnc3cc(I)ccc23)c1 [Compound 15]	> 100 µM
C#Cc1cccc(Nc2ncnc3cc(C(F)(F)F)ccc23)c1 [Compound 16]	31 µM
C#Cc1cccc(Nc2ncnc3cc(C#N)ccc23)c1 [Compound 17]	> 100 µM

test system: CH22 patient-derived chordoma cell line; assay: Cell viability assay (alamarBlue, 72 h), CH22; type: cell-based, human; conditions: Homo sapiens, n = 4, 72 h
Procedure: as §2, §1

Structure (SMILES)	IC50
C#Cc1cccc(Nc2ncnc3ccc(I)cc23)c1 [Compound 9, N-(3-ethynylphenyl)-6-iodoquinazolin-4-amine]	> 100 µM
C#Cc1cccc(Nc2c(C#N)cnc3ccc(I)cc23)c1 [Compound 28, 4-((3-ethynylphenyl)amino)-6-iodoquinoline-3-carbonitrile]	8.4 µM
C#Cc1cccc(Nc2ncnc3cc(OCCOC)c(OCCOC)cc23)c1 [Erlotinib, reference compound]	> 100 µM

same assay, conditions: n = 4, 72 h

Structure (SMILES)	IC50
C#Cc1cccc(Nc2ncnc3cc(OC)ccc23)c1 [Compound 11]	> 100 µM
C#Cc1cccc(Nc2ncnc3cc(I)ccc23)c1 [Compound 15]	> 100 µM
C#Cc1cccc(Nc2ncnc3cc(C(F)(F)F)ccc23)c1 [Compound 16]	8 µM
C#Cc1cccc(Nc2ncnc3cc(C#N)ccc23)c1 [Compound 17]	> 100 µM
